These results are taken from US20240025887A1, “THIENYL AND CYCLOALKYL AMINOPYRIMIDINE COMPOUNDS AS INHIBITORS OF NUAK KINASES, COMPOSITIONS AND USES THEREOF” (Ontario Institute for Cancer Research (OICR), priority 2021, published 2024).

A word on the IC50: it is the concentration needed to halve the response being measured.

Assay type in all cases: biochemical
Test [1] deals with T1, NUAK2 (h) (Homo sapiens, UniProt Q9H093).
T1 construct: This assay was done radiometrically using full-length, recombinant enzyme; purchased Eurofins
T1 sequence (Q9H093 1-628): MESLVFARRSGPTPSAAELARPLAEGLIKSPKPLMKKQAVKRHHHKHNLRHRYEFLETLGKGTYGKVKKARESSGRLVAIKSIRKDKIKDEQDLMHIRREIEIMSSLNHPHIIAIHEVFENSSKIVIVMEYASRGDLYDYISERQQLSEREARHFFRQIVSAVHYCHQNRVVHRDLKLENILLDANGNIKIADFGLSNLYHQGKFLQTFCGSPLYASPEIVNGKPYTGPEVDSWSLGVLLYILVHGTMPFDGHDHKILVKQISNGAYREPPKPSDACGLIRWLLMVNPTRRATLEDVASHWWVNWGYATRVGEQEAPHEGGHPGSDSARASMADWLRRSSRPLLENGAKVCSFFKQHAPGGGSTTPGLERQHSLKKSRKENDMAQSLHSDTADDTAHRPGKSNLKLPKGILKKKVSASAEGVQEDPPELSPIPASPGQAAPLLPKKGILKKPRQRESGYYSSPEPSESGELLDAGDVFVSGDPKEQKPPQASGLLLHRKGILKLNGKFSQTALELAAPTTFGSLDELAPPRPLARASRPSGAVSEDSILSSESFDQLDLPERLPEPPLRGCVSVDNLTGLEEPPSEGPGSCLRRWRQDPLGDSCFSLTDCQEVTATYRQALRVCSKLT
Briefly: NUAK2 enzymatic assay (radiometric, Eurofins). The following applies: radiometric, full-length recombinant enzyme. How it is done: (§1) To identify small molecule NUAK inhibitors, a biochemical NUAK2 enzymatic assay was outsourced to Eurofins. This assay was done radiometrically using full-length, recombinant enzyme. NUAK2 (h) was incubated with 8 mM MOPS pH 7.0, 0.2 mM EDTA, 300 μM […], 10 mM magnesium acetate and […] (specific activity and concentration as required). The reaction was initiated by the addition of the Mg/ATP mix. After incubation for 40 minutes at room temperature, the reaction was stopped by the addition of phosphoric acid to a concentration of 0.5%. 10 μL of the reaction was then spotted onto a P30 filter mat and washed four times for 4 minutes in 0.425% phosphoric acid and once in methanol prior to drying and scintillation counting. Compounds were routinely counter screened against Aurora A and NUAK1. The results are shown in Table 1 where IC50s are reported the following ranges: A: 0.1-10 nM; B: 11-100 nM; C: 101-1000 nM; D: >1000 nM for the compounds of Formula I)

Test [2] has as its target T2, NUAK1 (Homo sapiens, UniProt O60285).
T2 sequence (O60285 1-661): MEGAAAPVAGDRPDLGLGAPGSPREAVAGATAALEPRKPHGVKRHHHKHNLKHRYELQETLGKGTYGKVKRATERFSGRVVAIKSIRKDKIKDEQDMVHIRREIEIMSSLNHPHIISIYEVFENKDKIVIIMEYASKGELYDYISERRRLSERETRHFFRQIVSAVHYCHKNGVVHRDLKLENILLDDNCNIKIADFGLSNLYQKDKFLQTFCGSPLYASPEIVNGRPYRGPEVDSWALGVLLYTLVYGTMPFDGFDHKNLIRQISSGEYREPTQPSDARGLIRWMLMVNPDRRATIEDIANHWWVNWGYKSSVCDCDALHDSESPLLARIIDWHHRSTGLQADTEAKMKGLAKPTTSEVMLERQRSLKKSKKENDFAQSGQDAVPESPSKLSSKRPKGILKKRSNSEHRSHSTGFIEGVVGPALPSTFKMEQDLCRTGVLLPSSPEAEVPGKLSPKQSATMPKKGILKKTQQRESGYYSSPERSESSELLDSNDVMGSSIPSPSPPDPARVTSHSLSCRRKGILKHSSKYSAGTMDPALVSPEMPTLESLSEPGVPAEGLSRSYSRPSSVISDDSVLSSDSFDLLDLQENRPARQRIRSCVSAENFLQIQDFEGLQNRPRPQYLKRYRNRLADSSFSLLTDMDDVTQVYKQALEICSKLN
Put plainly: NUAK1 counter screen. How it is done:
as §1
Background: Counterscreens check selectivity or assay interference.

The target in test [3] is T3, Aurora A (Homo sapiens, UniProt O14965).
T3 sequence (O14965 1-403): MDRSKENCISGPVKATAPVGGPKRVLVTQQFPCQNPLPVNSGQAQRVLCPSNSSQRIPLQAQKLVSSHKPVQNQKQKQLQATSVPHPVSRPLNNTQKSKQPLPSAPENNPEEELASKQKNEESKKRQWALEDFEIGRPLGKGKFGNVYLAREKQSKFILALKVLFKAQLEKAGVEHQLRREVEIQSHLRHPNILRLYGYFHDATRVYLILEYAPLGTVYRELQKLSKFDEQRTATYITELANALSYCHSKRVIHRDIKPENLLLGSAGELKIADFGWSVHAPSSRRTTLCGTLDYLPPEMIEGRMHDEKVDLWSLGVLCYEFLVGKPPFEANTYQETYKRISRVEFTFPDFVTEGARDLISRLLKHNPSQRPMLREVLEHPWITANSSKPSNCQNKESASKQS
Put plainly: Aurora A counter screen. The following applies: read-out: AUR-A (IC50). As for the experimental part:
as §1

Structures can show the parent of a compound that is named as a salt.

As for `CN1C[C@H]2C[C@@H]1CN2c1ccc(Nc2ncc(Cl)c(Nc3ccsc3C(N)=O)n2)c(OC(F)F)c1` [Compound I-9, 3-((5-chloro-2-((2-(difluoromethoxy)-4-((1R,4R)-5-methyl-2,5-diazabicyclo[2.2.1]heptan-2-yl)phenyl)amino)pyrimidin-4-yl)amino)thiophene-2-carboxamide], the values for the half-maximal inhibitory concentration (IC50) in test [1], in test [2] and in test [3] were 0.1 to 10 nM, 11 to 100 nM and 101 to 1000 nM, respectively.
Regarding `CN1CCN(c2ccc(Nc3ncc(Cl)c(Nc4ccsc4C(N)=O)n3)c(OC(F)(F)F)c2)CC1` [Compound I-10, 3-((5-chloro-2-((4-(4-methylpiperazin-1-yl)-2-(trifluoromethoxy)phenyl)amino)pyrimidin-4-yl)amino)thiophene-2-carboxamide], the half-maximal inhibitory concentration (IC50) in test [1] was 0.1 to 10 nM; in test [2], 11 to 100 nM; in test [3], > 1000 nM.
In the same order, the values of `C[C@@H]1CN(c2ccc(Nc3ncc(Cl)c(Nc4sccc4C(N)=O)n3)c(OC(F)F)c2)C[C@H](C)N1C` [Compound I-11, 2-((5-chloro-2-((2-(difluoromethoxy)-4-((3R,5S)-3,4,5-trimethylpiperazin-1-yl)phenyl)amino)pyrimidin-4-yl)amino)thiophene-3-carboxamide] are 0.1 to 10 nM, 11 to 100 nM and 101 to 1000 nM.
On the same counts, the results for `CC(C)N1CCN(c2ccc(Nc3ncc(Cl)c(Nc4ccsc4C(N)=O)n3)c(OC(F)F)c2)CC1` [Compound I-12, 3-((5-chloro-2-((2-(difluoromethoxy)-4-(4-isopropylpiperazin-1-yl)phenyl)amino)pyrimidin-4-yl)amino)thiophene-2-carboxamide hydrochloride] are 0.1 to 10 nM, 0.1 to 10 nM and 11 to 100 nM.
`CC(C)N1CCN(c2ccc(Nc3ncc(Cl)c(Nc4sccc4C(N)=O)n3)c(OC(F)F)c2)CC1` [Compound I-13, 2-((5-chloro-2-((2-(difluoromethoxy)-4-(4-isopropylpiperazin-1-yl)phenyl)amino)pyrimidin-4-yl)amino)thiophene-3-carboxamide]: the 50% inhibitory concentration (IC50) in test [1] fell in the range of 0.1 to 10 nM; in test [2], 11 to 100 nM; in test [3], 11 to 100 nM.
Regarding `CCN1CCN(c2ccc(Nc3ncc(Cl)c(Nc4cscc4C(N)=O)n3)c(OC(F)F)c2)CC1` [Compound I-14, 4-((5-chloro-2-((2-(difluoromethoxy)-4-(4-ethylpiperazin-1-yl)phenyl)amino)pyrimidin-4-yl)amino)thiophene-3-carboxamide], the half-maximal inhibitory concentration (IC50) in test [1] lay within 0.1 to 10 nM; in test [2], 0.1 to 10 nM; in test [3], 101 to 1000 nM.
With `Cc1csc(Nc2nc(Nc3ccc(N4CCN(C)CC4)cc3OC(F)F)ncc2Cl)c1C(N)=O` [Compound I-15, 2-((5-chloro-2-((2-(difluoromethoxy)-4-(4-methylpiperazin-1-yl)phenyl)amino)pyrimidin-4-yl)amino)-4-methylthiophene-3-carboxamide], the IC50 in test [1] lay in the range of 11 to 100 nM; in test [2] it was 11 to 100 nM; in test [3], 101 to 1000 nM.
With `Cc1cnc(Nc2ccc(N3CCN(C(C)C)CC3)cc2OC(F)F)nc1Nc1ccsc1C(N)=O` [Compound I-17, 3-((2-((2-(difluoromethoxy)-4-(4-isopropylpiperazin-1-yl)phenyl)amino)-5-methylpyrimidin-4-yl)amino)thiophene-2-carboxamide], the results for the IC50 in test [1], in test [2] and in test [3] were 11 to 100 nM, 11 to 100 nM and 101 to 1000 nM, respectively.
For the molecule `CN1C[C@H]2C[C@@H]1CN2c1ccc(Nc2ncc(Cl)c(Nc3sccc3C(N)=O)n2)c(OC(F)F)c1` [Compound I-18, 2-((5-chloro-2-((2-(difluoromethoxy)-4-((1R,4R)-5-methyl-2,5-diazabicyclo[2.2.1]heptan-2-yl)phenyl)amino)pyrimidin-4-yl)amino)thiophene-3-carboxamide], the half-inhibitory concentration (IC50) in test [1] was 0.1 to 10 nM; in test [2], 11 to 100 nM; in test [3], 101 to 1000 nM.
As to `CN1CCN(c2ccc(Nc3ncc(Cl)c(Nc4sccc4C(N)=O)n3)c(OC(F)(F)F)c2)CC1` [Compound I-19, 2-((5-chloro-2-((4-(4-methylpiperazin-1-yl)-2-(trifluoromethoxy)phenyl)amino)pyrimidin-4-yl)amino)thiophene-3-carboxamide], the IC50 in test [1] was 11 to 100 nM; in test [2], 101 to 1000 nM; in test [3] it was > 1000 nM.
In the same order, the values of `CC(C)(C)N1CCN(c2ccc(Nc3ncc(Cl)c(Nc4ccsc4C(N)=O)n3)c(OC(F)F)c2)CC1` [Compound I-20, 3-((2-((4-(4-(tert-butyl)piperazin-1-yl)-2-(difluoromethoxy)phenyl)amino)-5-chloropyrimidin-4-yl)amino)thiophene-2-carboxamide] are 0.1 to 10 nM, 0.1 to 10 nM and 101 to 1000 nM.
In the same order, the values of `C[C@H]1CN(c2ccc(Nc3ncc(Cl)c(Nc4ccsc4C(N)=O)n3)c(OC(F)F)c2)CCN1C` [Compound I-21, (S)-3-((5-chloro-2-((2-(difluoromethoxy)-4-(3,4-dimethylpiperazin-1-yl)phenyl)amino)pyrimidin-4-yl)amino)thiophene-2-carboxamide] are 0.1 to 10 nM, 0.1 to 10 nM and 11 to 100 nM.
In the same order, the values of `CC(C)(C)N1CCN(c2ccc(Nc3ncc(Cl)c(Nc4sccc4C(N)=O)n3)c(OC(F)F)c2)CC1` [Compound I-22, 2-((2-((4-(4-(tert-butyl)piperazin-1-yl)-2-(difluoromethoxy)phenyl)amino)-5-chloropyrimidin-4-yl)amino)thiophene-3-carboxamide] are 11 to 100 nM, 11 to 100 nM and 11 to 100 nM.
Turning to `C[C@H]1CN(c2ccc(Nc3ncc(Cl)c(Nc4sccc4C(N)=O)n3)c(OC(F)F)c2)CCN1C` [Compound I-23, (S)-2-((5-chloro-2-((2-(difluoromethoxy)-4-(3,4-dimethylpiperazin-1-yl)phenyl)amino)pyrimidin-4-yl)amino)thiophene-3-carboxamide], the results for the IC50 in test [1], in test [2] and in test [3] were 11 to 100 nM, 11 to 100 nM and 101 to 1000 nM, respectively.
Regarding `NC(=O)c1sccc1Nc1nc(Nc2ccc(N3CCOCC3)cc2OC(F)F)ncc1Cl` [Compound I-24, 3-((5-chloro-2-((2-(difluoromethoxy)-4-morpholinophenyl)amino)pyrimidin-4-yl)amino)thiophene-2-carboxamide], the 50% inhibitory concentration (IC50) in test [1], in test [2] and in test [3] was 11 to 100 nM in each case.
With `CN1CCC(c2ccc(Nc3ncc(Cl)c(Nc4ccsc4C(N)=O)n3)c(OC(F)F)c2)CC1` [Compound I-25, 3-((5-chloro-2-((2-(difluoromethoxy)-4-(1-methylpiperidin-4-yl)phenyl)amino)pyrimidin-4-yl)amino)thiophene-2-carboxamide], the IC50 in test [1] was 11 to 100 nM; in test [2], 11 to 100 nM; in test [3], 101 to 1000 nM.
